From patent US9682965B2, “Fumagillol heterocyclic compounds and methods of making and using same” (Zafgen, Inc., priority 2015, dated 2017)
Where a name gives a salt, the structure may show the parent alone.

tested on: Male Sprague Dawley rats on high fat diet; experiment: 11 day rat DIO model (body weight, food intake, hematology, blood chemistries); assay type: in vivo; conditions: 264 h; DIO rat, 0.3 mpk sc, once a day for 11 days; read-out: DIO Rat 11-day weight loss vs vehicle
From the text: The objective of this study design is to investigate the efficacy of disclosed compounds in an 11 day rat DIO model used to screen compounds for pharmacologic efficacy on endpoints related to obesity and metabolism. Effects on body weight, food intake, hematology and blood chemistries were the primary readouts of this study design. […] Rats were fed Research Diets D12451 (45% High Fat) and provided water ad libitum. Rats were received and housed in the facility for at least two or three weeks prior to start of test article administration. On Day −4 or −3, rats were randomized into study groups based on body weight and body weights were continued to be recorded daily for the duration of the study. Daily food intake was assessed starting on Study Day −2 by weighing the hopper including the food to avoid loss of food in transfer.
(§1) Compounds were formulated into a 100% DMSO stock (at 9 mg/mL) prior to the start, and further diluted into the target working concentration using the vehicle of 10% DMSO in water. Prior to test article administration, starting on Day −3 a dosing acclimation occured with all animals receiving a subcutaneous injection of vehicle (10% DMSO) only for 3 days. Starting on Day 1, test compounds or vehicle were administered based on individual body weight, subcutaneously, once a day for 11 days. All animals were sacrificed on Day 11, approximately 2 hours following the final dosing on Day 11. After sacrifice, whole blood was collected and analyzed for hematology and blood chemistry parameters.
(§2) Compounds were tested vs. vehicle at various doses (1.0, 0.5, 0.3, 0.1, 0.03 mpk sc (mg per kg animal weight delivered subcutaneously), and the results are shown in Table 2 below.

Q: For `CO[C@@H]1[C@H](OC(=O)N2CCC(CCN3CC(F)(F)C3)C2)CC[C@]2(CO2)[C@H]1[C@@]1(C)O[C@@H]1CC=C(C)C` (stereo in doubt) [Example 57, (R)-(3R,4S,5S,6R)-5-methoxy-4-((2R,3R)-2-methyl-3-(3-methylbut-2-en-1-yl)oxiran-2-yl)-1-oxaspiro[2.5]octan-6-yl 3-(2-(3,3-difluoroazetidin-1-yl)ethyl)pyrrolidine-1-carboxylate], which inhibition in vivo at 0.3 mg/kg is on record?
A: 5.3%

tested on: Diet Induced Obese (DIO) C57BL/6 mice; experiment: 10 day DIO mouse model (body weight, food intake, hematology, blood chemistry); assay type: in vivo; conditions: 240 h; DIO mouse, 0.3 mpk sc, once a day for 10 days; read-out: DIO Mouse 10-day weight loss vs vehicle
From the text: The objective of this study design was to investigate the efficacy of disclosed compounds in a 10 day DIO mouse model. Effects on body weight, food intake, hematology and blood chemistry were the primary readouts of this study design. […] Mice were fed Research Diets D12492 (60% Kcal fat, 20% Kcal carbohydrate and 20% protein) and provided water ad libitum. DIO mice were received and housed in the facility for approximately two weeks prior to the start of test article administration. On Day −4 or −3, mice were randomized into study groups based on body weight and body weights were continued to be recorded daily for the duration of the study. Daily food intake was assessed starting on Study Day −2 by weighing of the food with hopper together to avoid loss of food in transfer.
as §1, with “for 10” for “for 11”, “All mice” for “All animals”, “11, 24” for “11, approximately 2”, “Day 10.” for “Day 11.”
as §2

Q: How did the inhibition in vivo at 0.3 mg/kg turn out when `CO[C@@H]1[C@H](OC(=O)N2CCC(CCN3CC(F)(F)C3)C2)CC[C@]2(CO2)[C@H]1[C@@]1(C)O[C@@H]1CC=C(C)C` (stereo in doubt) [Example 57, (R)-(3R,4S,5S,6R)-5-methoxy-4-((2R,3R)-2-methyl-3-(3-methylbut-2-en-1-yl)oxiran-2-yl)-1-oxaspiro[2.5]octan-6-yl 3-(2-(3,3-difluoroazetidin-1-yl)ethyl)pyrrolidine-1-carboxylate] was run?
A: 17.4%

Q: Which inhibition in vivo at 0.3 mg/kg does the source give for `CO[C@@H]1[C@H](OC(=O)N2CC[C@@H](CCN3CC(F)(F)C3)C2)CC[C@]2(CO2)[C@H]1[C@@]1(C)O[C@@H]1CC=C(C)C` [Example 58, (R)-((3R,4S,5S,6R)-5-methoxy-4-((2R,3R)-2-methyl-3-(3-methylbut-2-enyl)oxiran-2-yl)-1-oxaspiro[2.5]octan-6-yl) 3-(2-(3,3-difluoroazetidin-1-yl)ethyl)pyrrolidine-1-carboxylate] here?
A: 15.8%

Q: `CO[C@@H]1[C@H](OC(=O)N2CC(CCC(=O)NCCN3CCOCC3)C2)CC[C@]2(CO2)[C@H]1[C@@]1(C)O[C@@H]1CC=C(C)C` [Example 67, (3R,4S,5S,6R)-5-methoxy-4-((2R,3R)-2-methyl-3-(3-methylbut-2-enyl)oxiran-2-yl)-1-oxaspiro[2.5]octan-6-yl 3-(3-(2-morpholinoethylamino)-3-oxopropyl)azetidine-1-carboxylate] was tested. Which inhibition in vivo at 0.3 mg/kg did it give?
A: 2.8%

Q: For `CCN(CC)CCNC(=O)OCC1CN(C(=O)O[C@@H]2CC[C@]3(CO3)[C@@H]([C@@]3(C)O[C@@H]3CC=C(C)C)[C@@H]2OC)C1` [Example 68, (3R,4S,5S,6R)-5-methoxy-4-((2R,3R)-2-methyl-3-(3-methylbut-2-en-1-yl)oxiran-2-yl)-1-oxaspiro[2.5]octan-6-yl 3-((((2-(diethylamino)ethyl)carbamoyl)oxy)methyl)azetidine-1-carboxylate], which inhibition in vivo at 0.3 mg/kg is on record?
A: 0%

Q: With `CO[C@@H]1[C@H](OC(=O)N2CC(COC(=O)N(C)C)C2)CC[C@]2(CO2)[C@H]1[C@@]1(C)O[C@@H]1CC=C(C)C` [Example 70, (3R,4S,5S,6R)-5-methoxy-4-((2R,3R)-2-methyl-3-(3-methylbut-2-enyl)oxiran-2-yl)-1-oxaspiro[2.5]octan-6-yl 3-((dimethylcarbamoyloxy)methyl)azetidine-1-carboxylate] as the compound, how does the inhibition in vivo at 0.3 mg/kg read?
A: 14.5%

Q: Which inhibition in vivo at 0.3 mg/kg does the source give for `CCNC(=O)OC1CN(C(=O)O[C@@H]2CC[C@]3(CO3)[C@@H]([C@@]3(C)O[C@@H]3CC=C(C)C)[C@@H]2OC)C1` [Example 75, (3R,4S,5S,6R)-5-methoxy-4-((2R,3R)-2-methyl-3-(3-methylbut-2-enyl)oxiran-2-yl)-1-oxaspiro[2.5]octan-6-yl 3-(ethylcarbamoyloxy)azetidine-1-carboxylate] here?
A: 12.8%

Q: For `CO[C@@H]1[C@H](OC(=O)N2CC(OC(=O)NC(C)C)C2)CC[C@]2(CO2)[C@H]1[C@@]1(C)O[C@@H]1CC=C(C)C` [Example 76, (3R,4S,5S,6R)-5-methoxy-4-((2R,3R)-2-methyl-3-(3-methylbut-2-enyl)oxiran-2-yl)-1-oxaspiro[2.5]octan-6-yl 3-(isopropylcarbamoyloxy)azetidine-1-carboxylate], which inhibition in vivo at 0.3 mg/kg is on record?
A: 15.4%

Q: `CO[C@@H]1[C@H](OC(=O)N2CC(OC(=O)N(C)C)C2)CC[C@]2(CO2)[C@H]1[C@@]1(C)O[C@@H]1CC=C(C)C` [Example 77, (3R,4S,5S,6R)-5-methoxy-4-((2R,3R)-2-methyl-3-(3-methylbut-2-enyl)oxiran-2-yl)-1-oxaspiro[2.5]octan-6-yl 3-(dimethylcarbamoyloxy)azetidine-1-carboxylate] was tested. Which inhibition in vivo at 0.3 mg/kg did it give?
A: 16.3%

Q: How did the inhibition in vivo at 0.3 mg/kg turn out when `CO[C@@H]1[C@H](OC(=O)N2CC(OC(=O)N3CCS(=O)(=O)CC3)C2)CC[C@]2(CO2)[C@H]1[C@@]1(C)O[C@@H]1CC=C(C)C` [Example 79, 1-(((3R,4S,5S,6R)-5-methoxy-4-((2R,3R)-2-methyl-3-(3-methylbut-2-enyl)oxiran-2-yl)-1-oxaspiro[2.5]octan-6-yloxy)carbonyl)azetidin-3-yl thiomorpholine 2,2-dioxide-4-carboxylate formate] was run?
A: 0.1%

Q: For `CO[C@@H]1[C@H](OC(=O)N2CC(OC(=O)NCC(C)(C)O)C2)CC[C@]2(CO2)[C@H]1[C@@]1(C)O[C@@H]1CC=C(C)C` [Example 82, (3R,4S,5S,6R)-5-methoxy-4-((2R,3R)-2-methyl-3-(3-methylbut-2-enyl)oxiran-2-yl)-1-oxaspiro[2.5]octan-6-yl 3-(2-hydroxy-2-methylpropylcarbamoyloxy)azetidine-1-carboxylate], which inhibition in vivo at 0.3 mg/kg is on record?
A: -0.7%

Q: With `COC(=O)NC1CN(C(=O)O[C@@H]2CC[C@]3(CO3)[C@@H]([C@@]3(C)O[C@@H]3CC=C(C)C)[C@@H]2OC)C1` [Example 87, (3R,4S,5S,6R)-5-methoxy-4-((2R,3R)-2-methyl-3-(3-methylbut-2-enyl)oxiran-2-yl)-1-oxaspiro[2.5]octan-6-yl 3-(methoxycarbonylamino)azetidine-1-carboxylate] as the compound, how does the inhibition in vivo at 0.3 mg/kg read?
A: 10.9%

Q: For `CO[C@@H]1[C@H](OC(=O)N2CC(CCC3CCN(C)CC3)C2)CC[C@]2(CO2)[C@H]1[C@@]1(C)O[C@@H]1CC=C(C)C` [Example 90, (3R,4S,5S,6R)-5-methoxy-4-((2R,3R)-2-methyl-3-(3-methylbut-2-enyl)oxiran-2-yl)-1-oxaspiro[2.5]octan-6-yl 3-(2-(1-methylpiperidin-4-yl)ethyl)azetidine-1-carboxylate formate], which inhibition in vivo at 0.3 mg/kg is on record?
A: 13.5%

Q: With `CO[C@@H]1[C@H](OC(=O)N2CC(CCC3CN(CC(F)F)C3)C2)CC[C@]2(CO2)[C@H]1[C@@]1(C)O[C@@H]1CC=C(C)C` [Example 92, (3R,4S,5S,6R)-5-methoxy-4-((2R,3R)-2-methyl-3-(3-methylbut-2-enyl)oxiran-2-yl)-1-oxaspiro[2.5]octan-6-yl 3-(2-(1-(2,2-difluoroethyl)azetidin-3-yl)ethyl)azetidine-1-carboxylate] as the compound, how does the inhibition in vivo at 0.3 mg/kg read?
A: 20.7%

Q: Which inhibition in vivo at 0.3 mg/kg does the source give for `CO[C@@H]1[C@H](OC(=O)N2CC(CC3CCN(CC(F)F)CC3)C2)CC[C@]2(CO2)[C@H]1[C@@]1(C)O[C@@H]1CC=C(C)C` [Example 94, (3R,4S,5S,6R)-5-methoxy-4-((2R,3R)-2-methyl-3-(3-methylbut-2-enyl)oxiran-2-yl)-1-oxaspiro[2.5]octan-6-yl 3-((1-(2,2-difluoroethyl)piperidin-4-yl)methyl)azetidine-1-carboxylate] here?
A: 22.5%

Q: How did the inhibition in vivo at 0.3 mg/kg turn out when `CO[C@@H]1[C@H](OC(=O)N2CC(=CCN3CCOCC3)C2)CC[C@]2(CO2)[C@H]1[C@@]1(C)O[C@@H]1CC=C(C)C` [Example 96, (3R,4S,5S,6R)-5-methoxy-4-((2R,3R)-2-methyl-3-(3-methylbut-2-enyl)oxiran-2-yl)-1-oxaspiro[2.5]octan-6-yl 3-(2-morpholinoethylidene)azetidine-1-carboxylate] was run?
A: 18.6%

Q: With `CO[C@@H]1[C@H](OC(=O)N2CC(=CCN3CCN(CC(F)F)CC3)C2)CC[C@]2(CO2)[C@H]1[C@@]1(C)O[C@@H]1CC=C(C)C` [Example 97, (3R,4S,5S,6R)-5-methoxy-4-((2R,3R)-2-methyl-3-(3-methylbut-2-enyl)oxiran-2-yl)-1-oxaspiro[2.5]octan-6-yl 3-(2-(4-(2,2-difluoroethyl)piperazin-1-yl)ethylidene)azetidine-1-carboxylate] as the compound, how does the inhibition in vivo at 0.3 mg/kg read?
A: 21.3%

Q: How did the inhibition in vivo at 0.3 mg/kg turn out when `CO[C@@H]1[C@H](OC(=O)N2CC(Oc3ccccn3)C2)CC[C@]2(CO2)[C@H]1[C@@]1(C)O[C@@H]1CC=C(C)C` [Example 99, (3R,4S,5S,6R)-5-methoxy-4-((2R,3R)-2-methyl-3-(3-methylbut-2-enyl)oxiran-2-yl)-1-oxaspiro[2.5]octan-6-yl 3-(pyridin-2-yloxy)azetidine-1-carboxylate] was run?
A: 22.9%

Q: With `CO[C@@H]1[C@H](OC(=O)N2CC(CCC3CCN(CC(F)F)CC3)C2)CC[C@]2(CO2)[C@H]1[C@@]1(C)O[C@@H]1CCC(C)C` [Example 128, (3R,4S,5S,6R)-4-((2R,3R)-3-isopentyl-2-methyloxiran-2-yl)-5-methoxy-1-oxaspiro[2.5]octan-6-yl 3-(2-(1-(2,2-difluoroethyl)piperidin-4-yl)ethyl)azetidine-1-carboxylate] as the compound, how does the inhibition in vivo at 0.3 mg/kg read?
A: 15.2%
